Data from patent publication US20080020014A1, “Implantable devices containing nuclear receptor ligands for the treatment of vascular and related disorders” (priority 2006, published 2008).

Columns and labels:
[1] = system: PPARs; conditions: cited from earlier work
[2] = system: rat carotid arteries; conditions: balloon-denuded rat carotid arteries; cited from earlier work
[3] = Drug-release rate of Example 3 stents in phosphate-buffered saline with 1 mass % sodium dodecyl sulfate, pH 7.4, 37° C., HPLC; assay type: physicochemical
Protocol: A drug-polymer layer comprising 17-β estradiol was applied onto a stent in the following manner. A first composition was prepared by mixing the following components: • (a) about 2.0 mass % of EVAL; and • (b) the balance, a mixture of solvents, DMAC and ethanol, in a ratio of DMAC to ethanol of about 70:30 by mass.
The first composition was applied onto the surface of a bare 13 mm TETRA stent (available from Abbott Vascular Corp.) by spraying and dried to form a primer layer. A spray coater having an EFD 7803 spray valve with 0.014 inch fan nozzle with a VALVEMATE 7040 control system (manufactured by EFD Inc. of East Providence, R.I) was used. The fan nozzel was maintained at about 60° C. with a feed pressure of about 0.2 atm (about 3 psi) and an atomization pressure of about 1.35 atm (about 20 psi). An average of about 19 micrograms (μg) per coating pass was applied and an average total of about 62 μg of the wet coating was applied.
The primer layer was baked at about 140° C. for about one hour, yielding a layer with an average total amount of solids of about 61 μg, corresponding to an average thickness on the stent of 0.65 μm. “Solids” means the amount of dry residue deposited on the stent after all volatile organic compounds (e.g., the solvent) have been removed.
A second composition was prepared by mixing the following components: • (a) about 2.0 mass % of EVAL; • (b) about 0.7 mass % 17-β estradiol; and • (c) the balance, a mixture of solvents, DMAC and ethanol, in a ratio of DMAC to ethanol of about 70:30 by mass.
The second composition was applied onto the dried primer layer to form a drug-polymer polymer layer using the same spraying technique and equipment used for the primer layer. […] of the wet coating was applied, followed by drying at about 50° C. for about 2 hours. The total amount of solids of the drug-polymer layer was about 494 μg, corresponding to an average thickness on the stent of about 5.3 μm.
A third, topcoat composition was prepared by mixing the following components: • (a) about 1.2 g of a 10 mass % solution of KYNAR-FLEX 2800 in acetone; • (b) about 1.89 g of additional acetone; • (c) about 5.94 g of cyclohexanone; and • (d) about 2.97 g of AMS FLUX REMOVER.
The topcoat composition was applied by spraying using an EFD 7803 spray valve with 0.014 inch fan nozzle to form a topcoat layer, followed by drying. The nozzle temperature was at ambient temperature with a feed pressure of about 0.2 atm (3 psi) and an atomization pressure of about 1 atm (15 psi). The dryer temperature was at ambient temperature with a dryer air pressure of about 2.7 atm (40 psi). An average of about 5 μg per coating pass was applied and an average total of about 60 μg of wet coating was applied. The topcoat layer was baked at about 50° C. for two hours, yielding a total amount of solids of about 55 μg, corresponding to a thickness of about 0.38 μm.
Three stents coated according to this example were tested for their drug-release rate. The stents were immersed in individual, stirred vessels containing a phosphate-buffered saline solution that included about 1 mass % of sodium dodecyl sulfate. […] The amount of 17-β estradiol released was determined at measured intervals of time by HPLC. […] There was an initial small burst of 17-β estradiol during the first 20 hours, after which the release rate became approximately linear. Specifically, about 18% of 17-β estradiol was released after 10 hr, 25% after 20 hr, 30% after 30 hr, 35% after 40 hr, 40% after 50 hr, 43% after 60 hr, and 45% after 70 hr.

[4] = system: atherosclerosis; conditions: through liver X receptors (LXR); cited from earlier work
[5] = system: rat carotid arteries; conditions: after balloon injury to rat carotid arteries; cited from earlier work
[6] = system: collagenase gene expression at AP-1 binding sites; conditions: cited from earlier work
[7] = system: vascular smooth muscle cell; conditions: cited from earlier work
[8] = system: rabbit femoral arteries; conditions: 28 days after angioplasty; cited from earlier work
[9] = system: retinoic acid receptors (RARs); conditions: cited from earlier work
[10] = in blood; may not happen in tissue; listed as Tazarotene; cited from earlier work

Row | Compound | PPAR subtypes activated [1] | further results
1 | 9-(R/S) hydroxyoctadecadienoic acid [9-(R/S) HODE] | γ | 
2 | CCCCC[C@H](O)/C=C/C=C\CCCCCCCC(=O)O (racemic) [13-(R/S) HODE] | γ | 
3 | CCCCCCCCCCCCCCC(Br)C(=O)O (stereo not shown) [2-bromopalmitate] | α, δ | 
4 | CCCCC/C=C\C/C=C\C=C\[C@H](O)C/C=C\CCCC(=O)O [8-(R) HETE, 8-(R)-hydroxyeicosatetaenoic acid] | α, γ | 
5 | CCCCC/C=C\C/C=C\C=C\[C@@H](O)C/C=C\CCCC(=O)O [8-(S) HETE] | α, γ | 
6 | CCC=CCC=CCC=CC=CC(O)CC=CCCCC(=O)O (stereo not shown) [8-HEPE, 8-hydroxyeicosapentaenoic acid] | α | 
7 | CCCCCC=CC=CC(=O)CCCCCCCC(=O)O [9-oxo ODE, 9-oxo octadecadienoic acid] | γ | 
8 | CCCCC/C=C\C[C@H](O)/C=C/C=C\C/C=C\CCCC(=O)O [12-HETE] | α | 
9 | CCCCC[C@@H](/C=C/C=C\CCCCCCCC(=O)O)OO [13-(S) HpODE, 13-(S) hydroperoxyoctadecadienoic acid] | γ | 
10 | CC1=C(/C=C/C(C)=C/C=C/C(C)=C\C(=O)O)C(C)(C)CCC1 [13-cis retinoic acid] |  | intimal thickening [2]: suppressed; vessel remodeling [2]: increased
11 | CCCCCC(=O)/C=C/C=C\CCCCCCCC(=O)O [13-oxo ODE] | γ | 
12 | CCCCC[C@H](O)/C=C/C=C\C/C=C\C/C=C\CCCC(=O)O [15-HETE] | γ | 
13 | CCCCC/C=C/C=C1/C(=O)C=C[C@@H]1C/C=C\CCCC(=O)O [15d-PGJ2, 15-deoxy-Δ^12,14-PGJ2] | α, δ, γ | 
14 | C[C@]12CC[C@@H]3c4ccc(O)cc4CC[C@H]3[C@@H]1CC[C@@H]2O [17-β estradiol] |  | 17-β estradiol released ([3]; after 10 hr, EVAL drug-polymer layer, KYNAR-FLEX 2800 topcoat): about 18%; 17-β estradiol released ([3]; after 20 hr): ~25%; 17-β estradiol released ([3]; after 30 hr): ~30%; 17-β estradiol released ([3]; after 40 hr): ~35%; 17-β estradiol released ([3]; after 50 hr): ~40%; 17-β estradiol released ([3]; after 60 hr): ~43%; 17-β estradiol released ([3]; after 70 hr): ~45%
15 | CCCCCC#CCC#CCC#CCC#CCCCC(=O)O [ETYA, eicosatetraynoic acid] | α | 
16 | CC(C)(Sc1ccc(CCN(CCCCC2CCCCC2)C(=O)NC2CCCCC2)cc1)C(=O)O [GW-7647] | α | atherosclerosis and formation of microphage-forming cells [4]: inhibited

Row | Compound | PPAR subtypes activated [1] | further results
17 | CCCCC/C=C\C[C@@H](O)/C=C/C=C/C=C\[C@@H](O)CCCC(=O)O [LTB4] | α | 
18 | CCCCC[C@H](O)/C=C/C1=C(C/C=C\CCCC(=O)O)C(=O)CC1 [PGB2] | α, δ, γ | 
19 | CCCCC[C@H](O)/C=C/[C@H]1C(=O)C=C[C@@H]1C/C=C\CCCC(=O)O [PGJ2, prostaglandin J2] | α, δ, γ | 
20 | CCC/C=C/C/C=C/C=C/C=N/NN=O [Triacsin C] | α | 
21 | Cc1cccc(Nc2cc(Cl)nc(SCC(=O)O)n2)c1C [WY-14643] | α, δ, γ | 
22 | CC1=C(/C=C/C(C)=C/C=C/C(C)=C/C(=O)O)C(C)(C)CCC1 [all-trans retinoic acid] |  | favorable geometric remodeling [5]: promoted; neointimal formation [5]: reduced; intimal thickening [2]: suppressed; vessel remodeling [2]: increased; collagenase gene expression at AP-1 binding sites [6]: inhibited; vascular smooth muscle cell proliferation [7]: inhibited
23 | CCCCC/C=C\C/C=C\C/C=C\C/C=C\CCCC(=O)O [arachidonic acid] | α, δ, γ | 
24 | CC/C=C\C/C=C\C/C=C\C/C=C\C/C=C\C/C=C\CCC(=O)O [docahexanoic acid] | α, δ, γ | 
25 | CCCCC/C=C\C/C=C\CCCCCCCC(=O)O [linoleic acid] | α, δ | 
26 | CCCCCCCCCSCC(=O)O [nonythioacetic acid] | α | 
27 | CCCCC[C@H](O)/C=C/[C@@H]1[C@H]2C/C(=C/CCCC(=O)O)O[C@H]2C[C@H]1O [prostacyclin (PGI2), prostacyclin] | α, δ, γ | 
28 | CC1=C(/C=C/C(C)=C/C=C/C(C)=C/CO)C(C)(C)CCC1 [retinol] |  | internal and external elastic lamina [8]: larger
29 | CCOC(=O)c1ccc(C#Cc2ccc3c(c2)C(C)(C)CCS3)nc1 [tazarotene] |  | Receptor specificity [9]: specific for retinoic acid receptors (RARs); Pharmacokinetics: de-esterification / metabolism to tazarotenic acid [10]: rapidly metabolized to tazarotenic acid
30 | CCCCCCCCCCCCCCC1(C(=O)O)CO1 (stereo not shown) [tetradecylglycidic acid] | α, δ | 
31 | CCCCCCCCCCCCCCSCC(=O)O [tetradecythioacetate] | α | 
32 | clofibrates | α, δ, γ | 
